Reference: patent US10463592B2, “Peptide with anti-aging effect and use thereof” (Osaka University, priority 2013, dated 2019)
Where no end group is shown, it is not given here.

Assays:
[1] = tested on: human monocytic cell line THP-1; test: Sensitization test by the h-CLAT assay (overall evaluation); type: cell-based; conditions: even at high concentrations; positive if RFI of CD86>150 and RFI of CD54>200; 24 hours
Experimental: (§1) Into a 75-cm^2 flask was placed 50 mL of a suspension of the human monocytic cell line THP-1 (JCRB accession number: JCRB0112) at a density of 2.0×10^5 cells/mL in RPMI 1640 culture medium containing 10% FBS and 0.05 mM mercaptoethanol. The cells were precultured for 48 hours. The precultured THP-1 cells were harvested by centrifugation and suspended at 2.0×10^6 cells/mL in RPMI 1640 culture medium containing 10% FBS and 0.05 mM mercaptoethanol. To each well of 24-well plates, 500 μL of the cell suspension was seeded. To each well containing the seeded cell suspension, 500 μL of each peptide in the same culture medium was added. […] Then, 1×10^4 living cells were analyzed by flow cytometry to determine the expression levels of the cell surface antigens. […] The relative fluorescence intensities (RFIs) were calculated from the mean of the measured fluorescence intensities (MFIs) in accordance with the following equation.
(§2) From the survival rates and the RFI values of CD86 and CD54 expressions, the sensitization potentials were evaluated. The sensitization potentials of the test samples were determined to be positive when the RFIs of the antigen expressions in the sample treatment groups satisfy the following equations: the RFI of CD86>150, and the RFI of CD54>200. […]

CD86 expression in THP-1 = test: h-CLAT assay, CD86 expression; type: cell-based, human; conditions: positive if RFI of CD86>150, FIG. 2
Experimental: Into a 75-cm^2 flask was placed 50 mL of a suspension of the human monocytic cell line THP-1 (JCRB accession number: JCRB0112) at a density of 2.0×10^5 cells/mL in RPMI 1640 culture medium containing 10% FBS and 0.05 mM mercaptoethanol. The cells were precultured for 48 hours. The precultured THP-1 cells were harvested by centrifugation and suspended at 2.0×10^6 cells/mL in RPMI 1640 culture medium containing 10% FBS and 0.05 mM mercaptoethanol. To each well of 24-well plates, 500 μL of the cell suspension was seeded. To each well containing the seeded cell suspension, 500 μL of each peptide in the same culture medium was added. After 24 hours of incubation, the cells were harvested by centrifugation and were washed twice with PBS containing 0.1% BSA (FACS buffer). The cells were then suspended in 600 μL of FACS buffer containing a 0.01% human γ-globulin solution (Sigma, G2388) and incubated at 4° C. for 10 minutes to block the Fc receptor. The cell suspension was then split into three 180-μL aliquots for conducting an antibody reaction. The aliquots were each transferred to a 1.5-mL tube and centrifuged to give a pellet. To each pellet was added 50 μL of each of solutions of three different FITC-conjugated antibodies, i.e., FITC-conjugated CD86 antibody (Pharmingen; Cat #555657), FITC-conjugated CD54 antibody (Dako; Cat #F7143) and FITC-conjugated isotype control (Mouse IgG) antibody (Dako; Cat #X0927), that were adjusted to an appropriate concentration with FACS buffer. The mixture was incubated at 4° C. for 30 minutes. After the incubation, the cells were harvested by centrifugation and washed twice with FACS buffer. The cells were harvested by centrifugation and suspended in 200 μL of FACS buffer containing 0.625 μg/mL propidium iodide. Then, 1×10^4 living cells were analyzed by flow cytometry to determine the expression levels of the cell surface antigens. No gating on forward or side scatter was used. The relative fluorescence intensities (RFIs) were calculated from the mean of the measured fluorescence intensities (MFIs) in accordance with the following equation.
From the survival rates and the RFI values of CD86 and CD54 expressions, the sensitization potentials were evaluated. The sensitization potentials of the test samples were determined to be positive when the RFIs of the antigen expressions in the sample treatment groups satisfy the following equations: the RFI of CD86>150, and the RFI of CD54>200. (2) Results

CD54 expression in THP-1 = test: h-CLAT assay, CD54 expression; type: cell-based, human; conditions: positive if RFI of CD54>200; FIG. 3
Experimental: as §1, §2

| Molecule | sensitization potential [1] | sensitization potential for CD86 expression (CD86 expression in THP-1; at high concentrations) | sensitization potential for CD86 expression (CD86 expression in THP-1; at low concentrations) | sensitization potential for CD54 expression (CD54 expression in THP-1) |
| --- | --- | --- | --- | --- |
| Ac-IFLHR-NH2 [OSK-6, IFLHR] | negative |  |  |  |
| CC[C@H](C)[C@H](NC(=O)[C@H](CCCCN)NC(=O)[C@H](CCC(=O)O)NC(=O)[C@H](CCCCN)NC(=O)[C@H](CO)NC(=O)[C@H](CCCCN)NC(=O)[C@H](CCCNC(=N)N)NC(=O)[C@H](Cc1ccccc1)NC(=O)[C@H](Cc1ccccc1)NC(=O)[C@H](CC(=O)O)NC(=O)CNC(=O)[C@H](CC(C)C)NC(=O)[C@@H](N)CC(C)C)C(=O)NCC(=O)N[C@@H](CCCCN)C(=O)N[C@@H](CCC(=O)O)C(=O)N[C@@H](Cc1ccccc1)C(=O)N[C@@H](CCCCN)C(=O)N[C@@H](CCCNC(=N)N)C(=O)N[C@H](C(=O)N[C@H](C(=O)N[C@@H](CCC(N)=O)C(=O)N[C@@H](CCCNC(=N)N)C(=O)N[C@H](C(=O)N[C@@H](CCCCN)C(=O)N[C@@H](CC(=O)O)C(=O)N[C@@H](Cc1ccccc1)C(=O)N[C@@H](CC(C)C)C(=O)N[C@@H](CCCNC(=N)N)C(=O)N[C@@H](CC(N)=O)C(=O)N[C@@H](CC(C)C)C(=O)N[C@H](C(=O)N1CCC[C@H]1C(=O)N[C@@H](CCCNC(=N)N)C(=O)N[C@H](C(=O)N[C@@H](CCC(=O)O)C(=O)N[C@@H](CO)C(=O)O)[C@@H](C)O)C(C)C)[C@@H](C)CC)C(C)C)[C@@H](C)CC [LL-37] |  | positive | negative | negative |
| GIGKFLHSAKKFGKAFVGEIMNS [magainin] |  | positive | negative | negative |
| Ac-HRLKR-NH2 [OSK-9, HRLKR] | negative |  |  |  |
